# From ChEMBL document CHEMBL3217480, “Cytotoxic sugar analogues of an optimized novobiocin scaffold” (Medchemcomm, 2010)
# pIC50: −log10 of the molar value. Active and inactive are the calls of the source. The rule behind the calls is not given here.
# Experiments:
# [1] = target: Heat shock protein HSP 90-beta (Homo sapiens) (UniProt P08238); experiment: Inhibition of HSP90-dependent client protein Akt degradation in human MCF7 cells after 24 hrs by Western blot analysis; format: cell-based
# [2] = target: Heat shock protein HSP 90-beta (Homo sapiens) (UniProt P08238); experiment: Inhibition of HSP90-dependent client protein Raf degradation in human MCF7 cells after 24 hrs by Western blot analysis; format: cell-based
# MCF7 [3] = experiment: Effect on Hsp90 protein expression in human MCF7 cells at 0.5 to 25 uM after 24 hrs by Western blot analysis; format: functional, cell-based
# MCF7 [4] = experiment: Effect on actin expression in human MCF7 cells at 0.5 to 25 uM after 24 hrs by Western blot analysis; format: ADME, cell-based; conditions: mcf7, 24 h
# [5] = target: Heat shock protein HSP 90-beta (Homo sapiens) (UniProt P08238); experiment: Inhibition of HSP90-dependent client protein Her-2 degradation in human MCF7 cells after 24 hrs by Western blot analysis; format: cell-based
# LNCaP = experiment: Inhibition of human LNCAP cell proliferation; format: functional, cell-based
# [6] = Inhibition of human SKBR3 cell proliferation; format: functional, cell-based; conditions: SK-BR-3
# MCF7 [7] = experiment: Antiproliferative activity against estrogen receptor positive human MCF7 cells after 72 hrs by MTS assay; format: functional, cell-based; conditions: MCF7, 72 h
# [8] = Inhibition of human PL45 cell proliferation; format: functional, cell-based
# [9] = Inhibition of human Jurkat T cell cell proliferation; format: functional, cell-based
# PC-3 = experiment: Inhibition of human PC3 cell proliferation; format: functional, cell-based
# HCT-116 = experiment: Inhibition of human HCT116 cell proliferation; format: functional, cell-based
# [10] = Antiproliferative activity against estrogen receptor-negative, Her2 overexpressing human SKBR3 cells after 72 hrs by MTS assay; format: functional, cell-based; conditions: SK-BR-3, 72 h
# Heat shock protein HSP 90-beta (Homo sapiens), sequence (P08238 whole entry): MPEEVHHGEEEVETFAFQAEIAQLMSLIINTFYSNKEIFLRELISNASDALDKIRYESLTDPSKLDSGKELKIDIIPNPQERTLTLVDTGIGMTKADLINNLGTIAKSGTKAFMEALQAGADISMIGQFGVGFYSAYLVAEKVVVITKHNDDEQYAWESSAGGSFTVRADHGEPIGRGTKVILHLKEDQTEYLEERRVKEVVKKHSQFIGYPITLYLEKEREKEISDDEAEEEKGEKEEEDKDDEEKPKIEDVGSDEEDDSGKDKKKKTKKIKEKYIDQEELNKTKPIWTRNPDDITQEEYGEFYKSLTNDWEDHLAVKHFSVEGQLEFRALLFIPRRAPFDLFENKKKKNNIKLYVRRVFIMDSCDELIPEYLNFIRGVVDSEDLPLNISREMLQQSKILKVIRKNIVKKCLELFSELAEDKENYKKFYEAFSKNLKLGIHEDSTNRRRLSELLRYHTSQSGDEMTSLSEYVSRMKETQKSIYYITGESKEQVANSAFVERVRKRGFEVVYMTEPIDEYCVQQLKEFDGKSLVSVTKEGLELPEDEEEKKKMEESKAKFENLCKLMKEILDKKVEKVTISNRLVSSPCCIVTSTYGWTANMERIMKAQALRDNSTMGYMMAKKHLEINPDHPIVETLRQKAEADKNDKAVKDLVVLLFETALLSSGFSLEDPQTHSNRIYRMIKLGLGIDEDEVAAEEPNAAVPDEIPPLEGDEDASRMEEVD
structure (smiles),measurement,setting,value
CNC(=O)Oc1ccc2cc(NC(=O)c3ccc(OC)c(-c4cccc(OC)c4)c3)c(=O)oc2c1C,inhibition,[1],Dose-dependent effect
same,inhibition,[2],Dose-dependent effect
same,Activity,MCF7 [3],inactive
same,Activity,MCF7 [4],Non-toxic
same,inhibition,[5],Dose-dependent effect
COc1cccc(-c2cc(C(=O)Nc3cc4ccc(OC5CCN(C)CC5)c(C)c4oc3=O)ccc2OC)c1,inhibition,[1],Dose-dependent effect
same,inhibition,[2],Dose-dependent effect
same,Activity,MCF7 [3],inactive
same,Activity,MCF7 [4],Non-toxic
same,inhibition,[5],Dose-dependent effect
COc1cccc(-c2cc(C(=O)Nc3cc4cc(OC)c(OC(C)=O)c(C)c4oc3=O)ccc2OC)c1,pIC50,LNCaP,6.38
same,pIC50,[6],5.24
same,pIC50,MCF7 [7],5.82
same,pIC50,[8],5.39
same,pIC50,[9],6.38
same,pIC50,PC-3,6.01
same,pIC50,HCT-116,6.28
COc1cccc(-c2cc(C(=O)Nc3cc4ccc(OC5CCCN(C(C)=O)C5)c(C)c4oc3=O)ccc2OC)c1 (centres undefined),pIC50,MCF7 [7],5.04
same,pIC50,[10],4.97
COc1cccc(-c2cc(C(=O)Nc3cc4ccc(O[C@@H]5CCC[C@@H](O)[C@H]5O)c(C)c4oc3=O)ccc2OC)c1,pIC50,MCF7 [7],< 4.00
same,pIC50,[10],< 4.00
COc1cccc(-c2cc(C(=O)Nc3cc4ccc(O[C@H]5C[C@H](O)CCO5)c(C)c4oc3=O)ccc2OC)c1,pIC50,MCF7 [7],4.95
same,pIC50,[10],5.03
COc1cccc(-c2cc(C(=O)Nc3cc4cc(OC)c(O[C@@H]5OC(C)(C)[C@H](OC)[C@@H](O)[C@H]5O)c(C)c4oc3=O)ccc2OC)c1,pIC50,[6],4.23
same,pIC50,MCF7 [7],< 4.00
same,pIC50,[10],4.23
COc1cccc(-c2cc(C(=O)Nc3cc4ccc(O[C@@H]5OC(C)(C)[C@H](OC)[C@@H](O)[C@H]5O)c(C)c4oc3=O)ccc2OC)c1,pIC50,[6],5.12
same,pIC50,MCF7 [7],4.73
same,pIC50,[10],5.12
